From EP1087941B9, “THIOLESTERS AND USES THEREOF” (THE UNITED STATES OF AMERICA, as represented by THE …, priority 1998, dated 1999) come the findings set out here.

Test [1] concerns HIV-1RF. The experiment in a line: XTT cytoprotection assay (antiviral activity). The class given is cell-based. The conditions noted are these: for antiviral activity: result in words. An excerpt: (§1) One exemplary means to determine antiviral activity is with CEM-SS cells and virus (e.g., HIV-1RF) (MOI = 0.01) using the XTT (2,3-bis[2-methoxy- 4-nitro-5-sulfophenyl] -5- [(phenylamino)carbonyl]-2H-tetrazolium hydroxide) cytoprotection assay, as described by Rice (1993) PNAS 90:9721-9724, and Rice (1997) Antimicrob. Agents Chemother. 41:419-426. Briefly, cells are infected with HIV-1RF (or other virus to be tested) in the presence of various dilutions of test compounds (thiolesters and controls). The cultures are incubated for seven days. During this time control cultures without protective compounds (i.e., compounds with anti-viral activity) replicate virus, induce syncytia, and result in about 90% cell death. The cell death is measured by XTT dye reduction. XTT is a soluble tetrazolimn dye that measures mitochondrial energy output, similar to MTT. Positive controls using dextran sulfate (an attachment inhibitor) or 3'-Azido -2'-3'-dideoxythymidine, AZT (a reverse transcriptase inhibitor) are added to each assay. Individual assays are done in duplicate using a sister plate method.
(§2) Effective antiviral concentrations providing 50% cytoprotection (EC50), and cellular growth inhibitory concentrations causing 50% cytotoxicity (IC50) are calculated.
In general terms: Tetrazolium assays rely on reduction of a dye to a coloured formazan, in cell work by metabolically active cells.

For test [2], the system named is CEM-SS cells. Briefly: cells. The class given is cell-based. The conditions noted are these: Homo sapiens, CEM-SS.
Description: as §1, §2

Test [3] deals with T1, recombinant HIV-1 NCp7 protein (Human immunodeficiency virus type 1 group M subtype B, UniProt P03347).
T1 construct: within the nucleocapsid p7 (NCp7) protein portion of the polyprotein
Briefly: Trp37 zinc finger fluorescence (zinc ejection) assay. The class given is biochemical. The conditions noted are these: for Zinc Finger Reactivity RFU/ min: average decrease in relative fluorescence units over 30 min; for zinc finger reactivity: result in words. The procedure:
Zinc finger reactivity was measured using a Zn specific fluorochrome, TSQ, N-(6-methoxy-8-quinolyl) -p-toluenesulfonamide, assay or a Trp37 zinc finger fluorescence assay. Fluorescent measurements of the Trp37 residue in the C-terminal finger of recombinant HIV-1 NCp7 protein were performed as described by Rice (1995) Science 270:1194-1197; Rice (1997) Antimicrob. Agents Chemother. 41:419-426. Measurement of Zn ejection from both fingers was measured using the Zn-selective fluorchrome probe TSQ (Molecular Probes, Eugene OR) as described by Rice (1996) J. Med. Chem 39:3606-3616. Measurement of the ability of NCp7 to bind to a DNA oligomer, a 44 mer: […] (SEQ ID NO:1), analogous to the HIV-1 RNA packaging site was carried out as described by Huang (1998) J. Med. Chem. 41:1371-1381, see also, Rossio (1998) HIV Pathogenesis and Treatment: Keystone Symposium on Molecular and Cellular Biology, Abstract # 4082. Briefly, 50 nM NCp7 was treated with test compounds for 1 hour at RT in […] buffer containing 10% glycerol and 50 mM Tris-HCl (pH 7.5). Labeled oligomer (0.1 picomole, end labeled [^32P]) was added in an equal volume of buffer containing 10% glycerol, 50 mM Tris-HCl (pH 7.5), 400 mM KCl and 40 mM MgCl2. The reaction was continued for 15 min at room temperature, and a total of […] (or 1/4 of the total reaction volume) was separated on nondenaturing 4.5% polyacrylamide gels in 0.5X Tris-Borate electrophoresis buffer. NCp7-oligomer complexes were visualized by autoradiography.
Changes in the intrinsic fluorescence of aromatic protein moieties are commonly used to monitor a reaction which involves a change in protein conformation. In the present invention, fluorescence can be used to monitor the loss of metal ion from a zinc finger, e.g., the loss of zinc from a CCHC retroviral zinc finger protein, after contact with a thiolester of the invention. The intrinsic fluorescence of Trp 37 in the second zinc finger of HIV-1 NC protein has been used to monitor nucleic acid binding and conformation of the zinc finger complex (see, Summers (1992) supra).
Zinc ejection is measured by the ability of compounds to chemically attack the cysteines in purified NCp7 protein resulting in a loss of fluorescence due to the movement of the tryptophan 37 residue from an exposed to an internal position on the protein. Zinc ejection is measured and expressed as either percent decrease in total fluorescence or decrease in relative fluorescence units per min during a 30 min assay (RFU/min). A thiolester is considered within the scope of the invention if any amount of zinc ejection is detected. For example, compound 50 has a zinc ejection rate of 0.86 RFU/min.

The mark [4] stands for this setting: Human immunodeficiency virus 1, read-out: Antiviral Activity EC50.
The mark [5] stands for this setting: read-out: Antiviral Activity IC50.
The mark [6] stands for this setting: read-out: Antiviral Activity IC50%.
[7] abbreviates: read-out: IC50 / cellular toxicity.
Where [8] appears, read: Human immunodeficiency virus 1, read-out: Antiviral Activity EC50%.

Where two headings read alike, the source gives them in different places. Where only a bound is given, the exact number is not on record here.

For orientation: EC50 means the concentration that produces a half-maximal response. Take `CC(=O)Nc1cccc(S(=O)(=O)c2cccc(NC(=O)c3ccccc3SSc3ccccc3C(=O)Nc3cccc(S(=O)(=O)c4cccc(NC(C)=O)c4)c3)c2)c1` [Compound 36]: the EC50 in test [1] (Human immunodeficiency virus 1, B104) amounted to 0.62 µM; in test [1] (setting [4]), 0.62 µM. Moreover, the IC50 in test [2] (setting [5]) came to 5.9 µM. The “zinc finger reactivity / zinc ejection rate” value in test [3] came to 2 RFU/min. In addition, the “Zinc Finger Reactivity RFU/ min” value in test [3] (Table 4) was 2 RFU/min.
As for `CC(=O)NS(=O)(=O)c1ccc(NC(=O)c2ccccc2NC(=O)CCCl)cc1` [Compound 37, N-[2-(3-chloro-propionamido)benzoyl]sulfacetamide], in test [1], the antiviral activity result is on record as “neither had appreciable antiviral activity”. Moreover, the IC50 in test [2] (setting [6]) is more than 316 µM. Also, in test [3] (Table 5), the “Zinc Finger Reactivity RFU/ min” value was “RFU/ min^b 2.0”. Also, the zinc finger reactivity result in test [3] was “modest zinc finger reactivity”.
For the compound `CC(=O)NS(=O)(=O)c1ccc(NC(=O)c2cccc(NC(=O)CCCl)c2)cc1` [Compound 38], the EC50 in test [1] (setting [4]) was 38 µM. Also, the antiviral activity entry in test [1] is “neither had appreciable antiviral activity”. Moreover, the IC50 in test [2] (setting [6]) turned out to be 103 µM. For the same compound, the “Zinc Finger Reactivity RFU/ min” value in test [3] (Table 5) came to 3.9 RFU/ min. For the same compound, the zinc finger reactivity entry in test [3] is listed as “modest zinc finger reactivity”.
Regarding `CC(=O)NS(=O)(=O)c1ccc(NC(=O)c2ccccc2NC(=O)CCl)cc1` [Compound 39], the 50% effective concentration (EC50) in test [1] (setting [4]) is more than 316 µM. Besides, the antiviral activity entry in test [1] was “completely inactive”. Moreover, in test [2] (setting [6]), the IC50 amounted to 202 µM. Besides, the “Zinc Finger Reactivity RFU/ min” value in test [3] (Table 5) is on record as 0.3 RFU/ min.
As to `CC(=O)NS(=O)(=O)c1ccc(NC(=O)c2ccccc2SC(C)=O)cc1` [Compound 40], the EC50 in test [1] (setting [4]) amounted to 2.8 µM. Also, the IC50 is 56.7 µM in test [2] (setting [6]) and approximately 50 µM in test [2] (setting [7]). The “Zinc Finger Reactivity RFU/ min” value in test [3] (Table 5) is listed as 4.2 RFU/ min.
In the case of `CC(=O)NS(=O)(=O)c1ccc(NC(=O)c2ccccc2SC(=O)c2ccccc2)cc1` [Compound 41], in test [1] (setting [4]), the EC50 was 2.6 µM. The IC50 in test [2] (setting [6]) is 45.7 µM; in test [2] (setting [7]), approximately 50 µM. Also, the “Zinc Finger Reactivity RFU/ min” value in test [3] (Table 5) came to 2.2 RFU/ min.
In the case of `COc1ccc(C(=O)Sc2ccccc2C(=O)Nc2ccc(S(=O)(=O)NC(C)=O)cc2)cc1` [Compound 42], in test [1] (setting [4]), the half-maximal effective concentration (EC50) amounted to 2.8 µM. In addition, the results for the IC50 in test [2] (setting [6]) and in test [2] (setting [7]) were 43.7 µM and approximately 50 µM, respectively. Further, in test [3] (Table 5), the “Zinc Finger Reactivity RFU/ min” value is 3.5 RFU/ min.
As to `O=C(CCCCBr)Sc1ccccc1C(=O)Nc1ccc(S(=O)(=O)c2ccc([N+](=O)[O-])cc2)cc1` [Compound 46], in test [1] (setting [8]), the concentration for a half-maximal effect (EC50) came to 1.6 µM. Moreover, the IC50 in test [2] (setting [5]) is 21.7 µM. For the same compound, the “Zinc Finger Reactivity RFU/ min” value in test [3] (Table 6) was found to be 1 RFU/ min.
In the case of `NS(=O)(=O)c1ccc(CNC(=O)c2ccccc2SC(=O)CCCC[n+]2ccccc2)cc1` [Compound 48], the EC50 in test [1] (setting [8]) is 1.1 µM. Moreover, the IC50 in test [2] (setting [5]) and in test [2] (setting [7]) was 55 µM throughout. Moreover, in test [3] (Table 6), the “Zinc Finger Reactivity RFU/ min” value stood at 1.4 RFU/ min.
On to `O=C(CCCCBr)Sc1ccccc1C(=O)Nc1ccc(S(=O)(=O)c2ccc(NS(=O)(=O)Cc3ccccc3[N+](=O)[O-])cc2)cc1` [Compound 49], for which the EC50 in test [1] (setting [8]) is more than 316 µM. Also, in test [2] (setting [5]), the IC50 is more than 316 µM. The “Zinc Finger Reactivity RFU/ min” value in test [3] (Table 6) came out at 1.9 RFU/ min.
On to `O=C(CCCC[n+]1ccccc1)Sc1ccccc1C(=O)Nc1ccc(S(=O)(=O)c2ccc(NS(=O)(=O)Cc3ccccc3[N+](=O)[O-])cc2)cc1` [Compound 50], for which, in test [1] (setting [8]), the half-maximal effective concentration (EC50) turned out to be 2.9 µM. Besides, the IC50 in test [2] (setting [5]) was more than 316 µM. The “zinc finger reactivity / zinc ejection rate” value in test [3] worked out at 0.86 RFU/min. In addition, the “Zinc Finger Reactivity RFU/ min” value in test [3] (Table 6) is listed as 0.86 RFU/ min.
As to `CC(=O)Nc1ccc(S(=O)(=O)c2ccc(NC(=O)c3ccccc3SC(=O)CCCC[n+]3ccccc3)cc2)cc1` [Compound 51], the concentration giving a half-maximal response (EC50) in test [1] (setting [8]) came to 4.6 µM. In addition, the IC50 in test [2] (setting [5]) stood at 288 µM. The “Zinc Finger Reactivity RFU/ min” value in test [3] (Table 6) stood at 1.7 RFU/ min.
With `CC(=O)Nc1cccc(S(=O)(=O)c2cccc(NC(=O)c3ccccc3SC(=O)CCCC[n+]3ccccc3)c2)c1` [Compound 52], in test [1] (setting [8]), the EC50 was 4.9 µM. Besides, the IC50 in test [2] (setting [5]) amounted to 205 µM. The “Zinc Finger Reactivity RFU/ min” value in test [3] (Table 6) is 1.1 RFU/ min.
Consider `CC(=O)NS(=O)(=O)c1ccc(NC(=O)c2ccccc2SC(=O)CCC[n+]2ccccc2)cc1` [Compound 54], for which the EC50 in test [1] (setting [8]) was found to be 10.1 µM. For the same compound, the IC50 in test [2] (setting [6]) was found to be 175 µM. Also, the “Zinc Finger Reactivity RFU/ min” value in test [3] (Table 10) amounted to 2.2 RFU/ min.
Taken in the same sequence, the figures for `CC(=O)NS(=O)(=O)c1ccc(NC(=O)c2ccccc2SC(=O)CCCCC[n+]2ccccc2)cc1` [Compound 55] were 10.5 µM, 69.7 µM and 1.9 RFU/ min.
In the case of `CC(=O)NS(=O)(=O)c1ccc(NC(=O)c2ccccc2NC(=O)CCCC[n+]2ccccc2)cc1` [Compound 56], in test [1] (setting [8]), the concentration for a half-maximal effect (EC50) was more than 316 µM. Moreover, in test [1], the antiviral activity result was “inactive”. Also, the IC50 in test [2] (setting [6]) was more than 316 µM. In addition, in test [3] (Table 10), the “Zinc Finger Reactivity RFU/ min” value is reported as 2.6 RFU/ min.
For the compound `CC(=O)NS(=O)(=O)c1ccc(NC(=O)c2ccccc2SC(=O)CCCC[n+]2cccc(Cl)c2)cc1` [Compound 57], the half-maximal effective concentration (EC50) in test [1] (setting [8]) is 54 µM. In addition, in test [2] (setting [6]), the IC50 is 264 µM. In test [3] (Table 10), the “Zinc Finger Reactivity RFU/ min” value stood at 0.2 RFU/ min.
